The record followed here is US5314999A, “Derivatives of basic polyene macrolides and their preparation” (Laboratoires Mayoly-Spindler, priority 1989, dated 1994).

Assay type in all cases: cell-based
The test system of one data set is X 63 (mice lymphoma B). As to the kind of experiment: Toxicity on nucleated cells, X 63 mice lymphoma B. Conditions: 1 hour 30, trypan blue, 90 min, read-out: LD 50 (concentration leading to a mortality of 50%).
The subject of data set [1] is red corpuscles. Description: Toxicity on red corpuscles (lysis), human. Conditions: 37° C., 1 hour 30, 90 min, 90 min, read-out: LD 50 (dose which leads to lysis in 50% of the erythrocytes). Here is the method:
(§1) B.1: Study of the toxicity on red corpuscles
(§2) All the solutions of the AmB derivatives according to the invention were prepared immediately before use by diluting 4 mg of substance in 100 μl of 5% glucose solution, and then, after 15 minutes protected from light, 100 μl of sterile distilled water are added, and the mixture is made up to stock solutions of 4 mg/ml with a 5% glucose solution. For comparative study of the effects of AmB, 4 mg of FUNGIZONE are diluted with 1 ml of 5% glucose.
(§3) The cells are prepared by placing 1 ml of a peripheral blood sample into a tube together with Ficollhypaque to remove the lymphocytes, and then centrifuging the mixture at 2000 rpm for 20 minutes. The remaining red corpuscles are recovered, washed once with 0.9% NaCl and then twice with 150 Mm KCl, 0.5 Mm tris-HCl, pH 7.4.
(§4) A 1.25% suspension is then prepared with 150 mM KCl solution, 0.5 mM tris-HCl, pH 7.4, and 150 μl thereof are distributed in wells along with 50 μl of each of the dilutions of the derivatives, plus a control well (5% glucose solution).
(§5) The cells are then incubated at 37° C. in a steam cabinet for 1 hour 30.
(§6) To evaluate the cell lysis, haemoglobin is essayed by removing 100 μl of the supernatant in each well and diluting the sample with 1 ml of distilled water.
(§7) The haemoglobin concentration is calculated by measuring the optical density at 540 nm and taking into account the absorption of the derivatives of amphotericine B.
(§8) LD 50 is the dose which leads to lysis in 50% of the erythrocytes (a control of 100% lysis is obtained with distilled water, and reference lysis of 0% is obtained with the 5% glucose solution).

The next data set relates to thymocytes. As to the kind of experiment: Toxicity on nucleated cells, mice thymocytes. Conditions: 1 hour 30, trypan blue, 90 min, read-out: LD 50 (concentration leading to a mortality of 50%).
The next data set concerns PBL. As to the kind of experiment: Toxicity on nucleated cells, human PBL. The settings on record: 90 min. Here is the method:
B.2: Study of the toxicity on nucleated cells
The solutions of the amphotericine B derivatives are prepared similarly to those mentioned in paragraph B.1.
The cells are prepared by placing 20 ml of blood diluted to 1/2 with 0.9% NaCl into a tube together with 10 ml of Ficoll-hypaque, and the mixture is centrifuged at 2000 rpm for 30 minutes. The cell nuclei are recovered and washed twice with PBS buffer containing 5% of foetal calf serum.
The cells are prepared by suspending 1.14×10^6 cells/ml in RPMI 1640 containing 2.5% of foetal calf serum and by filling each well with 150 μl. 50 μl of each dilution of the derivatives are added and also one control (5% glucose solution).
The cells are then incubated in a steam cabinet at a CO2 concentration of 5% for 1 hour 30 at 37° C. or at ambient temperature.
To evaluate the toxicity of the derivatives, a cell count in the presence of trypan blue is made, and the LD 50 (concentration of the derivative leading to a mortality of 50%) is calculated with respect to the control (5% glucose solution) for each concentration of each derivative.

Another data set has as its system Aspergillus fumigatus. Description: Diffusion method in agar-agar medium (Sabouraud agar-agar). The settings on record: Sabouraud agar-agar, disc diameter 1 cm, 0.1 ml. The procedure:
(§9) A.2 : Study of the antibiotic efficiency of amphotericine B derivatives in agar-agar medium against Aspergillus
(§10) The antibiotic activity was tested by the diffusion method in agar-agar medium (Sabouraud agar-agar).
(§11) The efficiency of each molecule was determined by the size of the growth-inhibiting zone around a WHATMAN 3M paper disc impregnated with the antibiotic substance of a given concentration.
(§12) A suspension of Aspergillus spores in a broth was prepared, 0.2 ml of this suspension was used to inoculate at its surface an agar-agar medium which was solidified in such a manner that a homogeneous growth layer was obtained. After spreading, the WHATMAN 3M paper discs (diameter: 1 cm) were placed on the surface of the agar-agar, and then impregnated with 0.1 ml of the antibiotic substance at different concentrations.

A further data set deals with Aspergillus flavus. The data set is described as above. The settings on record: Sabouraud agar-agar, disc diameter 1 cm, 0.1 ml. Here is the method:
as §9, §10, §11, §12

For a further data set, the system named is DAUDI (human lymphoma B). Description: Toxicity on nucleated cells, DAUDI human lymphoma B. The settings on record: 1 hour 30, trypan blue, 90 min, read-out: LD 50 (concentration leading to a mortality of 50%).
Data set [2] deals with red corpuscles. Description: Toxicity on red corpuscles (lysis), mice. The settings on record: 37° C., 1 hour 30, 90 min, read-out: LD 50 (dose which leads to lysis in 50% of the erythrocytes). Here is the method:
as §1, §2, §3, §4, §5, §6, §7, §8

For the next data set, the system named is Saccharomyces cerevisiae. As to the kind of experiment: Growth inhibition in liquid medium (Sabouraud broth). The settings on record: Sabouraud broth, 28° C., 18 hours; read-out: IC 50 (growth-inhibiting concentration of 50%). Here is the method:
(§13) A.1 : Study of the antibiotic efficiency of AmB derivatives in liquid medium against different yeasts
(§14) The antibiotic efficiency was tested by the growth inhibition method in liquid medium (Sabouraud broth) in the presence of different concentrations of the derivatives studied.
(§15) A yeast suspension was cultivated in a broth in such a manner that about 1×10^2 cell/ml were obtained.
(§16) The tubes containing the different concentrations of antifungal substance were inoculated with the same amount of yeast cells, and were then incubated at 28° C. for 18 hours with stirring. For each concentration of antifungal substance, two identical tubes were prepared.
(§17) The inhibition of fungal growth corresponding to the different concentrations was evaluated for each molecule by spectrophotometry at 620 nm and expressed in percent with respect to a reference solution without antifungal substance.

For the next data set, the system named is Cryptoccocus neoformans. Described as above. The settings on record: Sabouraud broth, 28° C., 18 hours; read-out: IC 50 (growth-inhibiting concentration of 50%). The procedure: as §13, §14, §15, §16, §17
The next data set deals with Candida albicans. The data set is described as above. Conditions: Sabouraud broth, 28° C., 18 hours; read-out: IC 50 (growth-inhibiting concentration of 50%). Here is the method: as §13, §14, §15, §16, §17
Where [3] appears, read: human PBL, 1 hour 30, trypan blue, read-out: LD 50 (concentration leading to a mortality of 50%).

Structures are written as SMILES. Where a name gives a salt, the structure may show the parent alone. Read-outs that look alike come from different tables or passages of the source.

Turning to `C[C@@H]1[C@H](O)[C@@H](C)/C=C/C=C/C=C/C=C/C=C/C=C/C=C/[C@H](O[C@@H]2O[C@H](C)[C@@H](O)[C@H](NCC3(O)O[C@H](C(=O)O)[C@@H](O)[C@@H]3O)[C@@H]2O)C[C@@H]2O[C@](O)(C[C@@H](O)C[C@@H](O)[C@H](O)CC[C@@H](O)C[C@@H](O)CC(=O)O[C@H]1C)C[C@H](O)[C@H]2C(=O)O` (stereo partly drawn) [AmB 17 G, 1-amino-1-deoxy-D-arabinoglucuronyl-AmB], the CC50 in the data set on X 63 (mice lymphoma B) was determined as 150 µM; in the data set on thymocytes, 5 µM; with PBL (setting [3]) it was 10 µM; in the data set on DAUDI (human lymphoma B), 300 µM. The figures for the HC50 in the data set with red corpuscles [1] and in the data set with red corpuscles [2] (90 min) were 50 µM and 10 µM, respectively. The “concentration giving a growth inhibition of 1 cm around a disc in solid medium” value (“concentration giving a growth inhibition” for short) is recorded as 3.5 × 10^-5 molarity with Aspergillus fumigatus and 9 × 10^-5 molarity in the data set with Aspergillus flavus. Moreover, the IC50 is 0.86 µM in the data set with Saccharomyces cerevisiae and 0.06 µM with Cryptoccocus neoformans.

Turning to `CC1OC[C@@H](O)[C@H]([C@H](O)C(=O)CN[C@@H]2[C@H](O)[C@H](O[C@H]3/C=C/C=C/C=C/C=C/C=C/C=C/C=C/[C@H](C)[C@@H](O)[C@@H](C)[C@H](C)OC(=O)C[C@H](O)C[C@H](O)CC[C@@H](O)[C@H](O)C[C@H](O)C[C@]4(O)C[C@H](O)[C@@H](C(=O)O)[C@H](C3)O4)O[C@H](C)[C@H]2O)O1` (stereo partly drawn) [AmB 22 G, 1-deoxy-1-amino-4,6-O-ethylidene-D-fructosyl-AmB], the CC50 in the data set on X 63 (mice lymphoma B) is 400 µM; with thymocytes it was 5 µM; with PBL (setting [3]) it was 30 µM; with DAUDI (human lymphoma B) it was 700 µM. Moreover, the HC50 in the data set on red corpuscles [1] worked out at 50 µM; in the data set with red corpuscles [2] (90 min) it was 10 µM. Also, the figures for the “concentration giving a growth inhibition” value in the data set on Aspergillus fumigatus and in the data set on Aspergillus flavus were 1 × 10^-4 molarity and 9 × 10^-5 molarity, respectively. Besides, the IC50 is 1.2 µM with Saccharomyces cerevisiae, 0.09 µM with Candida albicans and 0.12 µM in the data set with Cryptoccocus neoformans.

Consider `C[C@@H]1[C@H](O)[C@@H](C)/C=C/C=C/C=C/C=C/C=C/C=C/C=C/[C@H](O[C@@H]2O[C@H](C)[C@@H](O)[C@H](NCC3(O)O[C@H](C(N)=O)[C@@H](O)[C@@H]3O)[C@@H]2O)C[C@@H]2O[C@](O)(C[C@@H](O)C[C@@H](O)[C@H](O)CC[C@@H](O)C[C@@H](O)CC(=O)O[C@H]1C)C[C@H](O)[C@H]2C(=O)O` (some centres unmarked) [Acetic acid NMG salt], for which the CC50 in the data set with PBL (human PBLs, AmB 12 derivative, comparison of different catalysts (Table 4), read-out: LD 50 (the source's name)) was determined as 200 µM.

On to `C[C@@H]1[C@H](O)[C@@H](C)/C=C/C=C/C=C/C=C/C=C/C=C/C=C/[C@H](O[C@@H]2O[C@H](C)[C@@H](O)[C@H](NCC3(O)O[C@H](C(N)=O)[C@@H](O)[C@@H]3O)[C@@H]2O)C[C@@H]2O[C@](O)(C[C@@H](O)C[C@@H](O)[C@H](O)CC[C@@H](O)C[C@@H](O)CC(=O)O[C@H]1C)C[C@H](O)[C@H]2C(=O)O` (stereo partly drawn) [AmB 12 G, 1-amino-1-deoxy-D-arabinoglucuronamidyl-AmB], for which the CC50 with X 63 (mice lymphoma B) was 500 µM; in the data set on thymocytes, 5 µM; in the data set on PBL (setting [3]), 46 µM; in the data set with DAUDI (human lymphoma B), over 300 µM. The values for the HC50 with red corpuscles [1] and with red corpuscles [2] were 30 µM and 20 µM, respectively. Also, the “concentration giving a growth inhibition” value with Aspergillus fumigatus was 1 × 10^-4 molarity; with Aspergillus flavus, 9 × 10^-5 molarity. The values for the IC50 in the data set on Saccharomyces cerevisiae and in the data set with Candida albicans were 0.62 µM and 0.1 µM, respectively.

Consider `C[C@@H]1[C@H](O)[C@@H](C)/C=C/C=C/C=C/C=C/C=C/C=C/C=C/[C@H](O[C@@H]2O[C@H](C)[C@@H](O)[C@H](NCC(=O)[C@@H](O)[C@@H]3OC(c4ccccc4)OC[C@H]3O)[C@@H]2O)C[C@@H]2O[C@](O)(C[C@@H](O)C[C@@H](O)[C@H](O)CC[C@@H](O)C[C@@H](O)CC(=O)O[C@H]1C)C[C@H](O)[C@H]2C(=O)O` (stereo partly drawn) [AmB 20 G, 1-deoxy-1-amino-4,6O-benzylidene-D-fructosyl-AmB], for which the CC50 was determined as 150 µM in the data set on X 63 (mice lymphoma B), 4 µM with thymocytes, 30 µM in the data set on PBL (setting [3]) and 500 µM in the data set on DAUDI (human lymphoma B). Besides, the HC50 in the data set on red corpuscles [1] turned out to be 80 µM; in the data set with red corpuscles [2] (90 min), 4 µM. For the same compound, the “concentration giving a growth inhibition” value in the data set on Aspergillus fumigatus is 1.3 × 10^-4 molarity; with Aspergillus flavus, 6 × 10^-4 molarity. Moreover, the IC50 in the data set with Saccharomyces cerevisiae was determined as 1 µM; in the data set on Candida albicans, 0.1 µM; in the data set with Cryptoccocus neoformans, 0.06 µM.

As to `CC(=O)NC[C@H]1OC(O)(CN[C@@H]2[C@H](O)[C@H](O[C@H]3/C=C/C=C/C=C/C=C/C=C/C=C/C=C/[C@H](C)[C@@H](O)[C@@H](C)[C@H](C)OC(=O)C[C@H](O)C[C@H](O)CC[C@@H](O)[C@H](O)C[C@H](O)C[C@]4(O)C[C@H](O)[C@@H](C(=O)O)[C@H](C3)O4)O[C@H](C)[C@H]2O)[C@@H](O)[C@@H]1O` (some centres unmarked) [AmB 23 G, 6-deoxy-6-N-acetyl-1-deoxy-1-amino-fructosyl-AmB], the CC50 in the data set on X 63 (mice lymphoma B) stood at 500 µM; with thymocytes it was 2.5 µM; in the data set with PBL (setting [3]), 8 µM; in the data set with DAUDI (human lymphoma B), 300 µM. The HC50 worked out at 1 µM with red corpuscles [1] and 4 µM in the data set on red corpuscles [2] (90 min). For the same compound, the “concentration giving a growth inhibition” value in the data set with Aspergillus fumigatus is recorded as 9 × 10^-5 molarity; in the data set with Aspergillus flavus, 5 × 10^-4 molarity. The IC50 stood at 1 µM with Saccharomyces cerevisiae and 0.17 µM in the data set on Cryptoccocus neoformans.
